# Assays:
# [1] = system: PDGF-Rα; test: Kinase inhibition assay (radiometric or HTRF); format: biochemical
# [2] = Metabolism assay (liver microsomes); format: in vitro ADME, Sprague−Dawley rats; details: rat liver microsomes, 10 μM
# Procedure: In vitro biological evaluation […]
# MgCl2). After 5 min, the reaction was started by the addition of 13 μL of microsome mix from the liver of Sprague−Dawley rats (Invitrogen; 20 mg protein/mL in 0.1 M phosphate buffer) in a shaking water bath at 37 °C.
# The reaction was stopped by addition of 250 μL of ice-cold methanol at 0, 15, 30 and 60 min. The samples were diluted with 250 μL of DMSO and centrifuged at 10000 g for 5 min at 4 °C. The supernatants were analyzed and test compound was quantified by HPLC: mobile phase: MeOH 83%/H2O 17%/formic acid 0.1%; flow-rate:
# 1 mL/min; stationary phase: MultoHigh Phenyl phase, 5 μm, 250 × 4, precolumn, phenyl, 5 μm, 20 × 4; detection wavelength: 330 and 254 nm; injection volume: 50 μL. Control samples were performed to check the stability of 4 or 16 in the reaction mixture: first control was without NADPH, which is needed for the enzymatic activity of the microsomes, second control was with inactivated microsomes (incubated for 20 min at 90 °C), third control was […]
# quantified by an external calibration curve, where data are expressed as means ± SEM of single determinations […]
# obtained in three independent experiments. […]
# as mean percent of remaining compound ± SEM; n=3): 4: 0 min: 100 ± 0%, 15 min: 86 ± 3%, 30 min: 74 ± 1%,
# [3] = system: SHP mRNA; test: FXR target gene quantification (qRT-PCR) in HepG2 cells: SHP; format: cell-based; details: for SHP mRNA, mean fold activation compared to DMSO (0.1%): HepG2, 24 h
# [4] = system: T1, RXRα; test: Gal4-DBD-RXRα-LBD hybrid reporter gene assay; format: cell-based, human
# T1 construct: expressed in transfected cells; host or cells: HEK293T
# Source text: The Gal4-fusion receptor plasmids pFA-CMV-hPPARα-LBD[34], pFA-CMV-hPPARγ-LBD[34], pFA-CMV-hPPARδ-LBD[34], pFA-CMV-hLXRα-LBD[35], pFA-CMV-hLXRβ-LBD[35], pFA-CMV-hRXRα-LBD[36], pFA-CMV-hRXRβ-LBD[36], pFA-CMV-hRXRγ-LBD[36], pFA-CMV-hRARα-LBD[36], pFA-CMV-hRARβ-LBD[36], pFA-CMV-hRARγ-LBD[36], pFA-CMV-hVDR-LBD[36] and pFA-CMV-hCAR-LBD[36] coding for the hinge region and ligand binding domain (LBD) of the canonical isoform of the respective nuclear receptor have been reported previously. pFR-Luc (Stratagene) was used as reporter plasmid and pRL-SV40 (Promega) for normalization of transfection efficiency and cell growth.
# HEK293T cells were grown in DMEM high glucose, supplemented with 10% FCS, sodium pyruvate (1 mM), penicillin (100 U/mL) and streptomycin (100 μg/mL) at 37 °C and 5% CO2. The day before transfection, HEK293T cells were seeded in 96-well plates (2.5·10^4 cells/well). Before transfection, medium was changed to Opti-MEM without supplements. Transient transfection was carried out using Lipofectamine LTX reagent (Invitrogen) according to the manufacturer’s protocol with pFR-Luc (Stratagene), pRL-SV40 (Promega) and pFA-CMV-hNR-LBD. […] Luminescence was measured with an Infinite M200 luminometer (Tecan Deutschland GmbH) or a Tecan Spark 10 M luminometer (Tecan). […]
# [5] = system: FXR-LBD; test: Thermal shift assay (SYPRO Orange); format: binding; details: compound 100 µM alone, 5 µM FXR-LBD; mean ± SEM, n ≥ 4
# Procedure: Thermal shift experiments were performed in clear 96-well plates (Invitrogen) using SYPRO Orange (Invitrogen) as dye as described previously[38]. 10 μL of test compound (final concentrations: 3: 100 µM; 16: 100 µM) in assay buffer (10 mM TRIS (pH 8.3), 5 mM DTT, 0.5 mM EDTA, 100 mM NaCl) were mixed with 10 μL of FXR-LBD (final protein concentration 5 µM) in assay buffer and 5 µL of SYPRO Orange (5 × final concentration). Temperature-dependent fluorescence increase reporting protein denaturation was measured in duplicates in an ICycler (Bio-Rad Laboratories, Hercules, CA, USA) from 20 to 90 °C in steps of 0.5 °C per minute at 300 nm excitation and 570 nm emission wavelength. The first derivative of the melting curve was calculated using the Graph Pad Prism 5 software. All curves were determined at least four times in independent experiments.
# [6] = system: kinases that interact with FXR; test: Kinase inhibition profile, kinases that interact with FXR; format: biochemical
# [7] = system: T2, TGR5; test: TGR5 assay (Eurofins); format: cell-based; details: 1 and 10 µM
# T2 construct: Eurofins (Brussels, Belgium)
smiles,measurement,setting,value
"CS(=O)(=O)O.CS(=O)(=O)O.CS(=O)(=O)O.CS(=O)(=O)O.Cc1ccc(NC(=O)c2ccc(Cl)cc2)cc1Nc1nccc(-c2cccnc2)n1.Cc1ccc(NC(=O)c2ccc(Cl)cc2)cc1Nc1nccc(-c2cccnc2)n1.O.O.O [compound 16, 4-Chloro-N-(4-methyl-3-(4-(pyridin-3-yl)pyrimidin-2-ylamino)phenyl)benzamide dimesylate-sesquihydrate]",Inhibition of PDGF-Rα,[1],potent inhibitor
same,mean percent of remaining compound,[2]; 0 min,100 ± 0%
same,mean percent of remaining compound,[2]; 15 min,92 ± 1%
same,mean percent of remaining compound,[2]; 30 min,88 ± 1%
same,mean percent of remaining compound,[2]; 60 min,86 ± 1%
same,CDCA-induced SHP mRNA expression compared to 1 alone,"[3]; HepG2, 16 co-incubated with 1",about 3 fold
same,"SHP mRNA, mean fold activation compared to DMSO (0.1%)",[3]; 0.3 µM alone,2.32 ± 0.18
same,"SHP mRNA, mean fold activation compared to DMSO (0.1%)",[3]; 16 (0.3 µM) + 1 (20 µM),1.64 ± 0.23
same,"SHP mRNA, mean fold activation compared to DMSO (0.1%)",[3]; 16 (0.3 µM) + 1 (50 µM),12.70 ± 1.04
same,RXR agonistic activity (activation of RXRα-Gal4 chimera receptor),[4],did not activate
same,Thermal shift of FXR-LBD melting point,[5],−1.0 ± 0.0 °C
same,Inhibition of kinases that interact with FXR,[6],does not markedly inhibit
same,TGR5 modulation (agonistic or antagonistic activity),[7],does not modulate

# Reference: paper PMC5931576, “Allosteric modulation of the farnesoid X receptor by a small molecule” (Scientific Reports, 2018)
